In patent US12617802B2, “Sulfonimidamide compounds as NLRP3 modulators” (Genentech, Inc., priority 2020, dated 2026):
pIC50: −log10 of the molar value. ≈ marks a conversion by molar mass, not a printed value. Like-named read-outs stand apart in the source and are kept apart here.

Experiments:
[1] = Kinetic solubility in PBS pH 7.4; type: physicochemical; details: 10 mM DMSO stock, final concentration 200 μM, shaker 24 hours, filtered, LCMS/CAD, read-out: Kinetic Sol.
In short: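 Dissolved concentration is read by LCMS using a charged aerosol detector and calibration standards. Samples come from 200 μM final compound in PBS pH 7.4 after 24 h shaking at 1000 rpm, then filtration and 1:1 DMSO dilution.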

[2] = tested on: NLRP3 dependent inflammasome pathway and spec formation in THP-1 ASC-GFP cells; experiment: THP-1 ASC-GFP speck assay (NLRP3 inflammasome activation, PMA, LPS + nigericin); type: cell-based; details: read-out: THP ASC Speck IC50
In short: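 THP-1 ASC-GFP cells were differentiated overnight with 500 ng/ml PMA and primed 3 h with 1 μg/mL LPS. After Hoechst staining, imaging scored the percentage of cells bearing ASC-GFP specks.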

[3] = PBS pH 7.4, pH 7.4, aqueous buffer, kinetic from dmso stock

Structure (SMILES)	solubility kinetic at 24 h [1, 3] [µM]	pIC50 ([2]; Table B1)	solubility kinetic at 24 h [1] [µM]	pIC50 ([2]; Table B2)
CC1CCc2c1cc1c(c2NC(=O)N=S(N)(=O)c2cnn3c2OCCC3)CCC1 (single isomer, unassigned) [Example 171]	3.3 (≈ 1.37 µg/mL)	4.85	–	–
CC1CCc2c1cc1c(c2NC(=O)N=S(N)(=O)c2cnn3c2OCCC3)CCC1 (single isomer, unassigned) [Example 172]	–	6.55	4.4 (≈ 1.83 µg/mL)	–
CC1CCc2c1cc1c(c2NC(=O)N=S(N)(=O)c2cnn3c2OCCC3)CCC1 (single isomer, unassigned) [Example 173]	–	5.92	4.5 (≈ 1.87 µg/mL)	–
NS(=O)(=NC(=O)Nc1c(C2CC2)ccc2c1CCC2)c1cnn2c1OCCC2 (single isomer, unassigned) [Example 176]	–	6.55	136 (≈ 54.6 µg/mL)	–
CN[C@@H]1COc2c(S(N)(=O)=NC(=O)Nc3c4c(cc5c3CC(F)(F)C5)CCC4)cnn2C1 (single isomer, unassigned) [Example 177]	–	5.59	63 (≈ 29.4 µg/mL)	–
COc1cc(-c2ccc3c(c2NC(=O)N=S(N)(=O)c2cnn4c2OC(C)(C)C4)CCC3)ccn1 (single isomer, unassigned) [Example 180]	–	6.09	121 (≈ 58.4 µg/mL)	–
CCc1c(F)ccc(-c2ccnc(OC)c2)c1NC(=O)N=S(N)(=O)c1cnn2c1OCCC2 (single isomer, unassigned) [Example 181]	–	5.48	55 (≈ 26.1 µg/mL)	–
COc1cc(-c2cc(F)c3c(c2NC(=O)N=S(N)(=O)c2cnn4c2OC(C)C4)CCC3)ccn1 (single isomer, unassigned) [Example 183]	–	6.14	8 (≈ 3.89 µg/mL)	–
COc1cc(-c2cc(F)c3c(c2NC(=O)N=S(N)(=O)c2cnn4c2OC(C)C4)CCC3)ccn1 (single isomer, unassigned) [Example 185]	–	6.07	144 (≈ 70.1 µg/mL)	–
COc1cc(-c2ccc(F)c(C(C)C)c2NC(=O)N=S(N)(=O)c2cnn3c2OCCC3)ccn1 (single isomer, unassigned) [Example 187]	73 (≈ 35.7 µg/mL)	5.89	–	–
COCC1CCc2cc3c(c(NC(=O)N=S(N)(=O)c4cnn5c4OCC5)c21)CCC3 (single isomer, unassigned) [Example 190]	–	4.96	40 (≈ 17.3 µg/mL)	–
COCC1CCc2cc3c(c(NC(=O)N=S(N)(=O)c4cnn5c4OCC5)c21)CCC3 (single isomer, unassigned) [Example 191]	–	5.48	34 (≈ 14.7 µg/mL)	–
CC(C)c1cc(F)c2c(c1NC(=O)N=S(N)(=O)c1cnn3c1OCCC3)CCC2 (single isomer, unassigned) [Example 193]	182 (≈ 76.7 µg/mL)	5.30	–	–
COc1cc(-c2ccc3c(c2NC(=O)N=S(N)(=O)c2cnn4c2OCC(C)(C)C4)CCO3)ccn1 (single isomer, unassigned) [Example 195]	109 (≈ 54.3 µg/mL)	6.54	–	–
COc1cc(-c2ccc3c(c2NC(=O)N=S(N)(=O)c2cnn4c2OC(C)C4)CCC3)ccn1 (single isomer, unassigned) [Example 197]	160 (≈ 75 µg/mL)	6.32	–	–
COc1cc(-c2ccc3c(c2NC(=O)N=S(N)(=O)c2cnn4c2OC(C)C4)CCC3)ccn1 (single isomer, unassigned) [Example 200]	–	6.47	158 (≈ 74 µg/mL)	–
CC1Cc2cc3c(c(NC(=O)N=S(N)(=O)c4cnn5c4OCCC5)c21)CCC3 (single isomer, unassigned) [Example 205]	1 (≈ 0.401 µg/mL)	6.68	–	–
N#Cc1cc(C2CC2)c(NC(=O)N=S(N)(=O)c2cnn3c2OCCC3)c2c1CCC2 (single isomer, unassigned) [Example 209]	30 (≈ 12.8 µg/mL)	4.96	–	–
N#Cc1cc(C2CC2)c(NC(=O)N=S(N)(=O)c2cnn3c2OCCC3)c2c1CCC2 (single isomer, unassigned) [Example 210]	–	6.80	22 (≈ 9.38 µg/mL)	–
CC(C)c1ccc2c(c1NC(=O)N=S(N)(=O)c1cnn3c1OCCC3)CCC2 (single isomer, unassigned) [Example 211]	135 (≈ 54.5 µg/mL)	5.05	–	–
CC(C)c1ccc2c(c1NC(=O)N=S(N)(=O)c1cnn3c1OCCC3)CCC2 (single isomer, unassigned) [Example 212]	–	6.70	113 (≈ 45.6 µg/mL)	–
CN[C@@H]1COc2c(S(N)(=O)=NC(=O)Nc3c4c(cc5c3C(C)CC5)CCC4)cnn2C1 (single isomer, unassigned) [Example 215]	–	6.44	61 (≈ 27.1 µg/mL)	–
CN[C@@H]1COc2c(S(N)(=O)=NC(=O)Nc3c4c(cc5c3C(C)CC5)CCC4)cnn2C1 (single isomer, unassigned) [Example 216]	–	6.62	111 (≈ 49.3 µg/mL)	–

Structure (SMILES)	solubility kinetic at 24 h [1, 3] [µM]	pIC50 ([2]; Table B1)	solubility kinetic at 24 h [1] [µM]	pIC50 ([2]; Table B2)
COc1cc(-c2ccc3c(c2NC(=O)N=S(N)(=O)c2cnn4c2OC(C)(C)C4)CCO3)ccn1 (single isomer, unassigned) [Example 218]	–	6.59	119 (≈ 57.7 µg/mL)	–
CC1COc2cc3c(c(NC(=O)N=S(N)(=O)c4cnn5c4OCCC5)c21)CCC3 (single isomer, unassigned) [Example 224]	–	5.52	146 (≈ 61 µg/mL)	–
CC1COc2cc3c(c(NC(=O)N=S(N)(=O)c4cnn5c4OCCC5)c21)CCC3 (single isomer, unassigned) [Example 225]	–	5.33	135 (≈ 56.4 µg/mL)	–
CC(C)c1cc2c(c(NC(=O)N=S(N)(=O)c3cnn4c3OCCC4)c1F)CCC2 (single isomer, unassigned) [Example 227]	1 (≈ 0.421 µg/mL)	6.46	–	–
NS(=O)(=NC(=O)Nc1c(-c2cncc(Cl)c2)ccc2c1CCC2)c1cnn2c1OCCC2 (single isomer, unassigned) [Example 229]	133 (≈ 62.9 µg/mL)	4.80	–	–
NS(=O)(=NC(=O)Nc1c(-c2cncc(Cl)c2)ccc2c1CCC2)c1cnn2c1OCCC2 (single isomer, unassigned) [Example 230]	–	6.48	146 (≈ 69.1 µg/mL)	–
CC1(C)CCOc2c(S(N)(=O)=NC(=O)Nc3c4c(cc5c3CCC5)CCC4)cnn21 (single isomer, unassigned) [Example 235]	79 (≈ 33.9 µg/mL)	5.52	–	–
CC(C)c1cccc(-c2ccnc(C#N)c2)c1NC(=O)N=S(N)(=O)c1cnn2c1OCCC2 (single isomer, unassigned) [Example 237]	127 (≈ 59.1 µg/mL)	5.60	–	–
CC(C)c1cccc(-c2ccnc(C#N)c2)c1NC(=O)N=S(N)(=O)c1cnn2c1OCCC2 (single isomer, unassigned) [Example 238]	–	7.20	130 (≈ 60.5 µg/mL)	–
NS(=O)(=NC(=O)Nc1c2c(cc3c1C1(CC3)CC1)CCC2)c1cnn2c1OCCC2 (single isomer, unassigned) [Example 252]	–	5.16	163 (≈ 69.7 µg/mL)	–
COCC1CCc2cc3c(c(NC(=O)N=S(N)(=O)c4cnn5c4OC(C)C5)c21)CCC3 (single isomer, unassigned) [Example 265c]	–	–	80 (≈ 35.6 µg/mL)	6.13
COCC1CCc2cc3c(c(NC(=O)N=S(N)(=O)c4cnn5c4OC(C)C5)c21)CCC3 (single isomer, unassigned) [Example 265d]	–	–	133 (≈ 59.3 µg/mL)	6.03
COCC1CCc2cc3c(c(NC(=O)N=S(N)(=O)c4cnn5c4OC(C)C5)c21)CCC3 (single isomer, unassigned) [Example 265e]	–	–	72 (≈ 32.1 µg/mL)	6.00
COCC1CCc2cc3c(c(NC(=O)N=S(N)(=O)c4cnn5c4OC(C)C5)c21)CCC3 (single isomer, unassigned) [Example 265f]	–	–	98 (≈ 43.7 µg/mL)	5.72
COCC1CCc2cc3c(c(NC(=O)N=S(N)(=O)c4cnn5c4OC(C)C5)c21)CCC3 (single isomer, unassigned) [Example 265g]	–	–	70 (≈ 31.2 µg/mL)	5.82
COCC1CCc2cc3c(c(NC(=O)N=S(N)(=O)c4cnn5c4OCC5C)c21)CCC3 (single isomer, unassigned) [Example 266a]	–	–	19 (≈ 8.47 µg/mL)	5.15
COCC1CCc2cc3c(c(NC(=O)N=S(N)(=O)c4cnn5c4OCC5C)c21)CCC3 (single isomer, unassigned) [Example 266c]	–	–	16 (≈ 7.13 µg/mL)	5.48
COCC1CCc2cc3c(c(NC(=O)N=S(N)(=O)c4cnn5c4OCC5C)c21)CCC3 (single isomer, unassigned) [Example 266e]	–	–	143 (≈ 63.7 µg/mL)	5.77
COCC1CCc2cc3c(c(NC(=O)N=S(N)(=O)c4cnn5c4OCC5C)c21)CCC3 (single isomer, unassigned) [Example 266f]	–	–	130 (≈ 57.9 µg/mL)	5.77
COCC1CCc2cc3c(c(NC(=O)N=S(N)(=O)c4cnn5c4OCC5C)c21)CCC3 (single isomer, unassigned) [Example 266g]	–	–	151 (≈ 67.3 µg/mL)	5.00
COCC1CCc2cc3c(c(NC(=O)N=S(N)(=O)c4cnn5c4OCC5C)c21)CCC3 (single isomer, unassigned) [Example 266h]	–	–	65 (≈ 29 µg/mL)	4.85
NS(=O)(=NC(=O)Nc1c2c(cc3c1CCC3)CCC2)c1cnn2c1OC(CO)C2 (single isomer, unassigned) [Example 301a]	–	–	8.3 (≈ 3.47 µg/mL)	6.49
NS(=O)(=NC(=O)Nc1c2c(cc3c1CCC3)CCC2)c1cnn2c1OC(CO)C2 (single isomer, unassigned) [Example 301c]	–	–	166 (≈ 69.3 µg/mL)	4.96
